Source: patent publication US20260176320A1, “MODULATORS OF G-PROTEIN COUPLED RECEPTORS” (priority 2018, published 2026)
Numbered stars: 1 amine (or outer) side, 2 acyl side, 3 side chain; on linkers, the order of the positions; unused ones are H or OH. Square brackets hold non-standard residues; d marks the D form. Side chains are listed from the residue outwards. Peptide text beside a SMILES is read from it. * marks the point of attachment. γGlu = O=C(O)[C@H](CCC(=O)[*:2])N[*:1]; X2 = O=C(CSCC(=O)*)NCCN1C(=O)CSC1=O; Palmitoyl = CCCCCCCCCCCCCCCC(=O)*; Aib = CC(C)(N)C(=O)O

Key:
[1] = target: GLP-1R (Homo sapiens, UniProt P43220); assay: HitHunter cAMP assay (GLP-1R); assay type: cell-based; conditions: Table 3A, cAMP; for Emax: read-out: (Emax) GLP-1R; for EC50: read-out: EC50 GLP-1R/nM
Sequence of GLP-1R (P43220 24-463): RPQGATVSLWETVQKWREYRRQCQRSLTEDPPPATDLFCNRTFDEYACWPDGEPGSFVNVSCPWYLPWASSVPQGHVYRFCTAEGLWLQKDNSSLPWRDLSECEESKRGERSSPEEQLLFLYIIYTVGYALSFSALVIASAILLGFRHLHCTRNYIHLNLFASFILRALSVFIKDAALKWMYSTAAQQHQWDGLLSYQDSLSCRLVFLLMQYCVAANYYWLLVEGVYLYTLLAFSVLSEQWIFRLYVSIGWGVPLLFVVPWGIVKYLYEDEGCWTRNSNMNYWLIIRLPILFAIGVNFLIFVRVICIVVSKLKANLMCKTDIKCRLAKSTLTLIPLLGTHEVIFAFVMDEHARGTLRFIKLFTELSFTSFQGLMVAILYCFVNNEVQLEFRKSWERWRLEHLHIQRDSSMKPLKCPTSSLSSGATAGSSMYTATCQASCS
How it was run: (§1)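 Cells were resuspended in HBSS plus HEPES, IBMX (625 μM) and BSA, then dispensed with antibody at 10,000 per well. Agonists followed as 22-point twofold series, 30 min at room temperature. Antibody reagent and detection steps ran 1 h and overnight in the dark before luminescence.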

[2] = target: T1, GIP-R (Homo sapiens, UniProt P48546); assay: HitHunter cAMP assay (GIP-R); assay type: cell-based; conditions: Table 3A, cAMP; for Emax: read-out: (Emax) GIP-R; for EC50: read-out: EC50 GIP-R/nM
T1 sequence (P48546 22-466): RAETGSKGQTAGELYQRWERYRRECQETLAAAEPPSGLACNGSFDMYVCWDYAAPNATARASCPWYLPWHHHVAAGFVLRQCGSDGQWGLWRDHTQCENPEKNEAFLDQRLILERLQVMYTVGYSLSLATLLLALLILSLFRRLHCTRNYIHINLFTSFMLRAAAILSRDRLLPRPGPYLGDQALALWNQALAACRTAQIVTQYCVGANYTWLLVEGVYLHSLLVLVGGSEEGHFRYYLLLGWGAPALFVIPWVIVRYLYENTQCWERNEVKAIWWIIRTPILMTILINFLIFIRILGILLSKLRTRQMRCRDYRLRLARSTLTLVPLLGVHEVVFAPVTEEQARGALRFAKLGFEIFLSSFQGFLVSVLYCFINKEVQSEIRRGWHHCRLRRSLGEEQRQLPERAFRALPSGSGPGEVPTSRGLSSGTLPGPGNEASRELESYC
How it was run: as §1

| SMILES | Emax [1] [%] | EC50 [1] [nM] | Emax [2] [%] | EC50 [2] [nM] |
| --- | --- | --- | --- | --- |
| CCCCCCCCCCCCCCCC(=O)N[C@@H](CCC(=O)NCCCC[C@H](NC(=O)CNC(=O)[C@H](CCCNC(=N)N)NC(=O)CNC(=O)[C@H](C)NC(=O)[C@H](CC(C)C)NC(=O)[C@H](CC(C)C)NC(=O)[C@H](Cc1c[nH]c2ccccc12)NC(=O)[C@H](CC(N)=O)NC(=O)[C@@H](NC(=O)[C@H](Cc1ccccc1)NC(=O)[C@H](CCC(=O)O)NC(=O)C(C)(C)NC(=O)[C@H](C)NC(=O)[C@H](C)NC(=O)[C@H](CCC(N)=O)NC(=O)[C@H](CCCCN)NC(=O)[C@H](CC(=O)O)NC(=O)[C@H](CC(C)C)NC(=O)[C@H](Cc1ccc(O)cc1)NC(=O)[C@@H](NC(=O)[C@H](CO)NC(=O)[C@H](Cc1ccc(O)cc1)NC(=O)[C@H](CC(=O)O)NC(=O)[C@H](CO)NC(=O)[C@@H](NC(=O)[C@H](Cc1ccccc1)NC(=O)[C@@H](NC(=O)CNC(=O)[C@H](CCC(=O)O)NC(=O)CSCC(=O)NCCN1C(=O)CSC1=O)[C@@H](C)O)[C@@H](C)O)[C@@H](C)CC)C(C)C)C(=O)NCC(=O)N1CCC[C@H]1C(=O)N[C@@H](CO)C(=O)N[C@@H](CO)C(=O)NCC(=O)N[C@@H](C)C(=O)N1CCC[C@H]1C(=O)N1CCC[C@H]1C(=O)N1CCC[C@H]1C(=O)N[C@@H](CO)C(N)=O)C(=O)O [Compound 198] (X2-EGTFTSDYSIYLDKQAA[Aib]EFVNWLLAGRGK([γGlu-Palmitoyl])GPSSGAPPPS-NH2) | 95 | 10 to 100 | 81 | 10 to 100 |
| CCCCCCCCCCCCCCCC(=O)N[C@@H](CCC(=O)NCCCC[C@H](NC(=O)[C@H](CO)NC(=O)[C@@H]1CCCN1C(=O)[C@@H]1CCCN1C(=O)[C@@H]1CCCN1C(=O)[C@H](C)NC(=O)CNC(=O)[C@H](CO)NC(=O)[C@H](CO)NC(=O)[C@@H]1CCCN1C(=O)CNC(=O)CNC(=O)[C@H](C)NC(=O)[C@H](CC(C)C)NC(=O)[C@H](CC(C)C)NC(=O)[C@H](Cc1c[nH]c2ccccc12)NC(=O)[C@H](CC(N)=O)NC(=O)[C@@H](NC(=O)[C@H](Cc1ccccc1)NC(=O)[C@H](CCC(=O)O)NC(=O)C(C)(C)NC(=O)[C@H](C)NC(=O)[C@H](C)NC(=O)[C@H](CCC(N)=O)NC(=O)[C@H](CCCCN)NC(=O)[C@H](CC(=O)O)NC(=O)[C@H](CC(C)C)NC(=O)[C@H](Cc1ccc(O)cc1)NC(=O)[C@@H](NC(=O)[C@H](CO)NC(=O)[C@H](Cc1ccc(O)cc1)NC(=O)[C@H](CC(=O)O)NC(=O)[C@H](CO)NC(=O)[C@@H](NC(=O)[C@H](Cc1ccccc1)NC(=O)[C@@H](NC(=O)CNC(=O)[C@H](CCC(=O)O)NC(=O)CSCC(=O)NCCN1C(=O)CSC1=O)[C@@H](C)O)[C@@H](C)O)[C@@H](C)CC)C(C)C)C(=O)O)C(=O)O [Compound 199] | 92 | 0.1 to 1 | 78 | 1 to 10 |
| CCCCCCCCCCCCCCCC(=O)N[C@@H](CCC(=O)NCCCC[C@H](NC(=O)[C@H](C)NC(=O)[C@H](C)NC(=O)[C@H](CCC(N)=O)NC(=O)[C@H](CCCCN)NC(=O)[C@H](CC(=O)O)NC(=O)[C@H](CC(C)C)NC(=O)[C@H](Cc1ccc(O)cc1)NC(=O)[C@@H](NC(=O)[C@H](CO)NC(=O)[C@H](Cc1ccc(O)cc1)NC(=O)[C@H](CC(=O)O)NC(=O)[C@H](CO)NC(=O)[C@@H](NC(=O)[C@H](Cc1ccccc1)NC(=O)[C@@H](NC(=O)CNC(=O)[C@H](CCC(=O)O)NC(=O)CSCC(=O)NCCN1C(=O)CSC1=O)[C@@H](C)O)[C@@H](C)O)[C@@H](C)CC)C(=O)N[C@@H](CCC(=O)O)C(=O)N[C@@H](Cc1ccccc1)C(=O)N[C@H](C(=O)N[C@@H](CC(N)=O)C(=O)N[C@@H](Cc1c[nH]c2ccccc12)C(=O)N[C@@H](CC(C)C)C(=O)N[C@@H](CC(C)C)C(=O)N[C@@H](C)C(=O)NCC(=O)NCC(=O)N1CCC[C@H]1C(=O)N[C@@H](CO)C(=O)N[C@@H](CO)C(=O)NCC(=O)N[C@@H](C)C(=O)N1CCC[C@H]1C(=O)N1CCC[C@H]1C(=O)N1CCC[C@H]1C(=O)N[C@@H](CO)C(=O)N[C@@H](CCCCN)C(N)=O)C(C)C)C(=O)O [Compound 200] | 89 | 10 to 100 | 66 | 100 to 1000 |
| CCCCCCCCCCCCCCCC(=O)N[C@@H](CCC(=O)NCCCC[C@H](NC(=O)[C@H](CC(=O)O)NC(=O)[C@H](CO)NC(=O)[C@@H](NC(=O)[C@H](Cc1ccccc1)NC(=O)[C@@H](NC(=O)CNC(=O)[C@H](CCC(=O)O)NC(=O)CSCC(=O)NCCN1C(=O)CSC1=O)[C@@H](C)O)[C@@H](C)O)C(=O)N[C@@H](CO)C(=O)N[C@H](C(=O)N[C@@H](Cc1ccc(O)cc1)C(=O)N[C@@H](CC(C)C)C(=O)N[C@@H](CC(=O)O)C(=O)N[C@@H](CCCCN)C(=O)N[C@@H](CCC(N)=O)C(=O)N[C@@H](C)C(=O)N[C@@H](C)C(=O)NC(C)(C)C(=O)N[C@@H](CCC(=O)O)C(=O)N[C@@H](Cc1ccccc1)C(=O)N[C@H](C(=O)N[C@@H](CC(N)=O)C(=O)N[C@@H](Cc1c[nH]c2ccccc12)C(=O)N[C@@H](CC(C)C)C(=O)N[C@@H](CC(C)C)C(=O)N[C@@H](C)C(=O)NCC(=O)NCC(=O)N1CCC[C@H]1C(=O)N[C@@H](CO)C(=O)N[C@@H](CO)C(=O)NCC(=O)N[C@@H](C)C(=O)N1CCC[C@H]1C(=O)N1CCC[C@H]1C(=O)N1CCC[C@H]1C(=O)N[C@@H](CO)C(=O)N[C@@H](CCCCN)C(N)=O)C(C)C)[C@@H](C)CC)C(=O)O [Compound 201] (X2-EGTFTSDK([γGlu-Palmitoyl])SIYLDKQAA[Aib]EFVNWLLAGGPSSGAPPPSK-NH2) | 99 | 1 to 10 | 105 | 1 to 10 |
| CCCCCCCCCCCCCCCC(=O)N[C@@H](CCC(=O)NCCCC[C@H](NC(=O)[C@H](CO)NC(=O)[C@@H]1CCCN1C(=O)[C@@H]1CCCN1C(=O)[C@@H]1CCCN1C(=O)[C@H](C)NC(=O)CNC(=O)[C@H](CO)NC(=O)[C@H](CO)NC(=O)[C@@H]1CCCN1C(=O)CNC(=O)CNC(=O)[C@H](C)NC(=O)[C@H](CC(C)C)NC(=O)[C@H](CC(C)C)NC(=O)[C@H](Cc1c[nH]c2ccccc12)NC(=O)[C@H](CC(N)=O)NC(=O)[C@@H](NC(=O)[C@H](Cc1ccccc1)NC(=O)[C@H](CCC(=O)O)NC(=O)C(C)(C)NC(=O)[C@H](C)NC(=O)[C@H](C)NC(=O)[C@H](CCC(N)=O)NC(=O)[C@H](CCCCN)NC(=O)[C@H](CC(=O)O)NC(=O)[C@H](CC(C)C)NC(=O)[C@H](Cc1ccc(O)cc1)NC(=O)[C@@H](NC(=O)[C@H](CO)NC(=O)[C@H](Cc1ccc(O)cc1)NC(=O)[C@H](CC(=O)O)NC(=O)[C@H](CO)NC(=O)[C@@H](NC(=O)[C@H](Cc1ccccc1)NC(=O)[C@@H](NC(=O)CNC(=O)[C@H](CCCC(=O)O)NC(=O)CSCC(=O)NCCN1CCCCC1=O)[C@@H](C)O)[C@@H](C)O)[C@@H](C)CC)C(C)C)C(N)=O)C(=O)O [Compound 219] | 89 | 10 to 100 | 75 | 1 to 10 |
